In patent US5482967A, “Condensed heterocyclic compounds, their production and use” (Takeda Chemical Industries, Ltd., priority 1992, dated 1996):

Columns and labels:
[1] = biological target: T1, acyl-CoA:cholesterol acyl transferase (ACAT) (Rattus norvegicus, UniProt Q7TQM4); assay: Inhibitory action against acyl-CoA:cholesterol acyl transferase (ACAT), formation of labeled cholesterol ester, small intestine mucosal microsome fraction; type: biochemical, male Sprague-Dawley rat; conditions: 10^-6 M; read-out: ACAT Inhibitory Rate (%)
T1 construct: small intestine mucosal microsome fraction of a 6-week-old male Sprague-Dawley rat; from tissue; host or cells: rat small intestine mucosa, microsome fraction
T1 sequence (Q7TQM4 1-524): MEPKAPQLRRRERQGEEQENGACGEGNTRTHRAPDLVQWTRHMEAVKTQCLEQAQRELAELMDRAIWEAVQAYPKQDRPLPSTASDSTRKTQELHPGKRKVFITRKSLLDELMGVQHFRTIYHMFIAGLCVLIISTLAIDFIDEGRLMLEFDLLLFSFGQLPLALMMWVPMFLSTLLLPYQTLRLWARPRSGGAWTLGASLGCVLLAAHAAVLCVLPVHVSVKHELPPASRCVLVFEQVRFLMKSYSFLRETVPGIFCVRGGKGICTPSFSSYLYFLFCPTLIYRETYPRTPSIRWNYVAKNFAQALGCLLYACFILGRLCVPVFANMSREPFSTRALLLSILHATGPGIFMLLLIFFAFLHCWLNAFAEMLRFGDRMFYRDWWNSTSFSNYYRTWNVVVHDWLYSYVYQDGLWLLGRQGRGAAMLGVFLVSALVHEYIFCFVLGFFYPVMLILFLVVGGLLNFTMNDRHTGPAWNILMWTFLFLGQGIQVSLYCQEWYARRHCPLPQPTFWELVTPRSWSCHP
Procedure: An ACAT enzyme preparation was prepared from a small intestine mucosal microsome fraction of a 6-week-old male Sprague-Dawley rat, previously fasted for 20 hours, in accordance with the method described by Heider et al. in the Journal of Lipid Research, Vol. 24, page 1127 (1982).
ACAT activity was determined by measuring the amount of labeled cholesterol ester produced from [1-^14 C]-oleoyl-CoA and endogenous cholesterol, in accordance with the method of Helgerud et al. [Journal of Lipid Research, Vol. 22, page 271 (1981)].

[2] = Hypocholesterolemic activity (cholesterol-lowering activity) in hypercholesterolemic mice on high cholesterol-cholic acid diet; type: in vivo, ICR mice; conditions: vs control groups; for Reduction % HPL: heparin precipitating lipoproteins; for Reduction % cholesterol: serum
Procedure: Groups of 6 ICR mice (2 subgroups of 3 mice) were made hypercholesterolemic by being fed a high cholesterol-cholic acid diet for 7 days and administered with test compounds orally on the last two days. One-half of the total does was given on day 6 followed by the other half on day 7. After fasting overnight (16 hours after the last dose), the animals were sacrificed and sera were collected together for the each subgroup for measuring the levels of cholesterol and heparin precipitating lipoproteins (HPL). Both cholesterol and HPL levels were measured with autonalyzer by the enzymatic CHOD-PAP method for the former and by the turbidimetric method of Shurr et. al. [in C. E. Dau ed. Atherosclerosis Drug Discovery, Plenum Publishing, New York, pp. 215-229 & 231-249, 1976.] for the latter.

inhibition at 1 µM [1] [%] | SMILES | Reduction % HPL ([2]; 3 mg/kg po) [%] | Reduction % cholesterol ([2]; 3 mg/kg po) [%] | Reduction % HPL ([2]; 10 mg/kg po) [%] | Reduction % cholesterol ([2]; 10 mg/kg po) [%]
99.2 | CC(C)c1cccc(C(C)C)c1NC(=O)Cc1oc(=O)c2ccc(Cl)cc2c1-c1ccccc1 [Example 48, N-[2,6-Bis(1-methylethyl)phenyl]-6-chloro-1-oxo-4-phenyl-1H-2-benzopyran-3-acetamide] | 26 | 27 | 39 | 32
99.5 | COc1ccccc1-c1c(CC(=O)Nc2c(OC)cccc2OC)oc(=O)c2ccccc12 [Example 74, N-(2,6-Dimethoxyphenyl)-4-(2-methoxyphenyl)-1-oxo-1H-2-benzopyran-3-acetamide] | 32 | 29 | 37 | 33
99.3 | Cc1ccccc1-c1c(CC(=O)Nc2c(C(C)C)cccc2C(C)C)c(=O)oc2ccc(Cl)cc12 [Example 82, N-[2,6-Bis(1-methylethyl)phenyl]-6-chloro-4-(2-methylphenyl)-2-oxo-2H-1-benzopyran-3-acetamide] | 37 | 31 | 50 | 40
99.5 | COc1cccc(OC)c1NC(=O)Cc1c(-c2ccccc2C)c2cc(Cl)ccc2oc1=O [Example 84, 6-Chloro-N-(2,6-dimethoxyphenyl)-4-(2-methylphenyl)-2-oxo-2H-1-benzopyran-3-acetamide] | 28 | 15 | 47 | 33
